Tested on: PDE1
Experiment: In vitro HTRF PDE1 inhibition assay
Assay type: biochemical
Conditions: HTRF cGMP assay, 100 nM cyclic GMP, PDE (1A3, 1B or 1C) with calmodulin, 45 minutes at 37° C.; isoform of the tabulated values not stated
Summary of the method: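 Activities are given as IC50 bands (<1, 1-10, >10 μM) derived from a 665/615 nm time-resolved FRET readout after d2-cGMP/anti-cGMP cryptate detection. Enzymes PDE1A3, 1B or 1C plus calmodulin were incubated 45 min at 37 °C with 100 nM cGMP, 1% DMSO, CaCl2/MgCl2 Tris buffer pH 7.4.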

CC1Cn2c(nc3c(cnn3C(C)C)c2=O)CN1c1ccc(Cl)cc1 (racemic) [Compound I-150, (±)-8-(4-Chlorophenyl)-1-isopropyl-7-methyl-6,7,8,9-tetrahydropyrazino[1,2-a]pyrazolo[3,4-d]pyrimidin-4(1H)-one]
IC50: 1 to 10 µM

COc1cccc(N2Cc3nc4c(cnn4C(C)C)c(=O)n3CC2C)c1 (racemic) [Compound I-151, (±)-1-Isopropyl-8-(3-methoxyphenyl)-7-methyl-6,7,8,9-tetrahydropyrazino[1,2-a]pyrazolo[3,4-d]pyrimidin-4(1H)-one]
IC50: < 1 µM

COc1cc(N2Cc3nc4c(cnn4C(C)C)c(=O)n3CC2C)ccc1F (racemic) [Compound I-152, (±)-8-(4-Fluoro-3-methoxyphenyl)-1-isopropyl-7-methyl-6,7,8,9-tetrahydropyrazino[1,2-a]pyrazolo[3,4-d]pyrimidin-4(1H)-one]
IC50: < 1 µM

CCC1Cn2c(nc3c(cnn3C(C)C)c2=O)CN1Cc1ccc(OC)cc1 (racemic) [Compound I-153, (±)-7-Ethyl-1-isopropyl-8-(4-methoxybenzyl)-6,7,8,9-tetrahydropyrazino[1,2-a]pyrazolo[3,4-a]pyrimidin-4(1H)-one]
IC50: 1 to 10 µM

CCC1Cn2c(nc3c(cnn3C(C)C)c2=O)CN1Cc1ccc(Cl)cc1 (racemic) [Compound I-154, (±)-8-(4-Chlorobenzyl)-7-ethyl-1-isopropyl-6,7,8,9-tetrahydropyrazino[1,2-a]pyrazolo[3,4-d]pyrimidin-4(1H)-one]
IC50: 1 to 10 µM

CCC1Cn2c(nc3c(cnn3C(C)C)c2=O)CN1c1ccc(Cl)cc1 (racemic) [Compound I-155, (±)-8-(4-Chlorophenyl)-7-ethyl-1-isopropyl-6,7,8,9-tetrahydropyrazino[1,2-a]pyrazolo[3,4-d]pyrimidin-4(1H)-one]
IC50: 1 to 10 µM

CC(C)CC1Cn2c(nc3c(cnn3C(C)C)c2=O)CN1c1ccc(Cl)cc1 (racemic) [Compound I-172, (±)-8-(4-Chlorophenyl)-7-isobutyl-1-isopropyl-6,7,8,9-tetrahydropyrazino[1,2-a]pyrazolo[3,4-d]pyrimidin-4(1H)-one]
IC50: < 1 µM

O=c1c2cnn(C3CCOC3)c2nc2n1CCN(c1ccccc1)C2 (racemic) [Compound I-216, (±)-8-Phenyl-1-(tetrahydrofuran-3-yl)-6,7,8,9-tetrahydropyrazino[1,2-a]pyrazolo[3,4-d]pyrimidin-4(1H)-one]
IC50: 1 to 10 µM

O=c1c2cnn(C3CCOC3)c2nc2n1CCN(c1ccc(Cl)cc1)C2 (racemic) [Compound I-217, (±)-8-(4-Chlorophenyl)-1-(tetrahydrofuran-3-yl)-6,7,8,9-tetrahydropyrazino[1,2-a]pyrazolo[3,4-d]pyrimidin-4(1H)-one]
IC50: < 1 µM

O=c1c2cnn(C3CCOC3)c2nc2n1CCN(Cc1ccccc1)C2 (racemic) [Compound I-218, (±)-8-Benzyl-1-(tetrahydrofuran-3-yl)-6,7,8,9-tetrahydropyrazino[1,2-a]pyrazolo[3,4-d]pyrimidin-4(1H)-one]
IC50: 1 to 10 µM

COc1ccc(CN2CCn3c(nc4c(cnn4C4CCOC4)c3=O)C2)cc1 (racemic) [Compound I-219, (±)-8-(4-methoxybenzyl)-1-(tetrahydrofuran-3-yl)-6,7,8,9-tetrahydropyrazino[1,2-a]pyrazolo[3,4-d]pyrimidin-4(1H)-one]
IC50: > 10 µM

O=c1c2cnn(C3CCOC3)c2nc2n1CCN(Cc1ccc(Cl)cc1)C2 (racemic) [Compound I-220, (±)-8-(4-Chlorobenzyl)-1-(tetrahydrofuran-3-yl)-6,7,8,9-tetrahydropyrazino[1,2-a]pyrazolo[3,4-d]pyrimidin-4(1H)-one]
IC50: 1 to 10 µM

O=c1c2cnc(C3CCOC3)n2nc2n1CCN(c1ccccc1)C2 (racemic) [Compound I-229, (±)-7-Phenyl-3-(tetrahydrofuran-3-yl)-8,9-dihydro-6H-imidazo[5,1-f]pyrazino[2,1-c][1,2,4]triazin-11(7H)-one]
IC50: < 1 µM

O=c1c2cnc(C3CCOC3)n2nc2n1CCN(Cc1ccccc1)C2 (racemic) [Compound I-231, (±)-7-Benzyl-3-(tetrahydrofuran-3-yl)-8,9-dihydro-6H-imidazo[5,1-f]pyrazino[2,1-c][1,2,4]triazin-11(7H)-one]
IC50: < 1 µM

COc1ccc(CN2CCn3c(nn4c(C5CCOC5)ncc4c3=O)C2)cc1 (racemic) [Compound I-232, (±)-7-(4-Methoxybenzyl)-3-(tetrahydrofuran-3-yl)-8,9-dihydro-6H-imidazo[5,1-f]pyrazino[2,1-c][1,2,4]triazin-11(7H)-one]
IC50: 1 to 10 µM

O=c1c2cnc(C3CCOC3)n2nc2n1CCN(Cc1ccc(Cl)cc1)C2 (racemic) [Compound I-233, (±)-7-(4-Chlorobenzyl)-3-(tetrahydrofuran-3-yl)-8,9-dihydro-6H-imidazo[5,1-f]pyrazino[2,1-c][1,2,4]triazin-11(7H)-one]
IC50: 1 to 10 µM

CC(C)n1ncc2c(=O)n3c(nc21)CNCC3 [Compound I-1, 1-Isopropyl-6,7,8,9-tetrahydropyrazino[1,2-a]pyrazolo[3,4-d]pyrimidin-4(1H)-one]
IC50: > 10 µM

O=c1c2cnn(-c3ccccc3)c2nc2n1CCNC2 [Compound I-2, 1-Phenyl-6,7,8,9-tetrahydropyrazino[1,2-a]pyrazolo[3,4-d]pyrimidin-4(1H)-one]
IC50: > 10 µM

CC(C)c1n[nH]c2c(=O)n3c(nc12)CNCC3 [Compound I-10, 3-Isopropyl-5,6,7,8-tetrahydropyrazino[1,2-a]pyrazolo[4,3-a]pyrimidin-10(1H)-one]
IC50: > 10 µM

CC(C)c1nn(C)c2c(=O)n3c(nc12)CNCC3 [Compound I-13, 3-Isopropyl-1-methyl-5,6,7,8-tetrahydropyrazino[1,2-a]pyrazolo[4,3-d]pyrimidin-10(1H)-one]
IC50: > 10 µM

O=c1c2c(Nc3ccccc3)n[nH]c2nc2n1CCNC2 [Compound I-16, 3-(Phenylamino)-6,7,8,9-tetrahydropyrazino[1,2-a]pyrazolo[3,4-d]pyrimidin-4(1H)-one]
IC50: > 10 µM

CN1CCn2c(nc3c(cnn3C)c2=O)C1 [Compound I-17, 1,8-Dimethyl-6,7,8,9-tetrahydropyrazino[1,2-a]pyrazolo[3,4-d]pyrimidin-4(1H)-one]
IC50: > 10 µM

CC(C)n1ncc2c(=O)n3c(nc21)CN(C)CC3 [Compound I-18, 1-Isopropyl-8-methyl-6,7,8,9-tetrahydropyrazino[1,2-a]pyrazolo[3,4-d]pyrimidin-4(1H)-one]
IC50: > 10 µM

CN1CCn2c(nc3c(cnn3-c3ccccc3)c2=O)C1 [Compound I-19, 8-Methyl-1-phenyl-6,7,8,9-tetrahydropyrazino[1,2-a]pyrazolo[3,4-d]pyrimidin-4(1H)-one]
IC50: > 10 µM

O=c1c2cn[nH]c2nc2n1CCN(Cc1ccccc1)C2 [Compound I-27, 8-Benzyl-6,7,8,9-tetrahydropyrazino[1,2-a]pyrazolo[3,4-d]pyrimidin-4(1H)-one]
IC50: > 10 µM

Cn1ncc2c(=O)n3c(nc21)CN(Cc1ccccc1)CC3 [Compound I-28, 8-Benzyl-1-methyl-6,7,8,9-tetrahydropyrazino[1,2-a]pyrazolo[3,4-d]pyrimidin-4(1H)-one]
IC50: > 10 µM

CC(C)n1ncc2c(=O)n3c(nc21)CN(Cc1ccccc1)CC3 [Compound I-29, 8-Benzyl-1-isopropyl-6,7,8,9-tetrahydropyrazino[1,2-a]pyrazolo[3,4-d]pyrimidin-4(1H)-one]
IC50: 1 to 10 µM

O=c1c2cnn(-c3ccccc3)c2nc2n1CCN(Cc1ccccc1)C2 [Compound I-30, 8-Benzyl-1-phenyl-6,7,8,9-tetrahydropyrazino[1,2-a]pyrazolo[3,4-d]pyrimidin-4(1H)-one]
IC50: > 10 µM

CC(C)c1nn(C)c2c(=O)n3c(nc12)CN(C)CC3 [Compound I-40, 3-Isopropyl-1,6-dimethyl-5,6,7,8-tetrahydropyrazino[1,2-a]pyrazolo[4,3-d]pyrimidin-10(1H)-one]
IC50: > 10 µM

CC(C)c1n[nH]c2c(=O)n3c(nc12)CN(Cc1ccccc1)CC3 [Compound I-43, 6-Benzyl-3-isopropyl-5,6,7,8-tetrahydropyrazino[1,2-a]pyrazolo[4,3-d]pyrimidin-10(1H)-one]
IC50: > 10 µM

CC(C)c1nn(C)c2c(=O)n3c(nc12)CN(Cc1ccccc1)CC3 [Compound I-46, 6-Benzyl-3-isopropyl-1-methyl-5,6,7,8-tetrahydropyrazino[1,2-a]pyrazolo[4,3-d]pyrimidin-10(1H)-one]
IC50: > 10 µM

CN1CCn2c(nc3[nH]nc(Nc4ccccc4)c3c2=O)C1 [Compound I-49, 8-Methyl-3-(phenylamino)-6,7,8,9-tetrahydropyrazino[1,2-a]pyrazolo[3,4-d]pyrimidin-4(1H)-one]
IC50: > 10 µM

O=c1c2c(Nc3ccccc3)n[nH]c2nc2n1CCN(Cc1ccccc1)C2 [Compound I-50]
IC50: > 10 µM

CC(C)Cn1ncc2c(=O)n3c(nc21)CN(Cc1ccccc1)CC3 [Compound I-51, 8-Benzyl-1-isobutyl-6,7,8,9-tetrahydropyrazino[1,2-a]pyrazolo[3,4-d]pyrimidin-4(1H)-one]
IC50: 1 to 10 µM

O=c1c2cnn(C3CCCC3)c2nc2n1CCN(Cc1ccccc1)C2 [Compound I-52, 8-Benzyl-1-cyclopentyl-6,7,8,9-tetrahydropyrazino[1,2-a]pyrazolo[3,4-d]pyrimidin-4(1H)-one]
IC50: 1 to 10 µM

O=c1c2cnn(C3CC3)c2nc2n1CCN(Cc1ccccc1)C2 [Compound I-53, 8-Benzyl-1-cyclopropyl-6,7,8,9-tetrahydropyrazino[1,2-a]pyrazolo[3,4-d]pyrimidin-4(1H)-one]
IC50: > 10 µM

CCCn1ncc2c(=O)n3c(nc21)CN(Cc1ccccc1)CC3 [Compound I-54, 8-Benzyl-1-propyl-6,7,8,9-tetrahydropyrazino[1,2-a]pyrazolo[3,4-d]pyrimidin-4(1H)-one]
IC50: 1 to 10 µM

CC(C)n1ncc2c(=O)n3c(nc21)CN(c1ccccc1)CC3 [Compound I-55, 1-Isopropyl-8-phenyl-6,7,8,9-tetrahydropyrazino[1,2-a]pyrazolo[3,4-d]pyrimidin-4(1H)-one]
IC50: 1 to 10 µM

Reference: patent US20160083391A1, “TRICYCLIC PIPERAZINE DERIVATIVE” (Sunovion Pharmaceuticals Inc., priority 2014, published 2016)
